Test [1] deals with Vibrio harveyi. Put plainly: Quorum Sensing, LuxS, LuxPQ Measured in Microorganism System Using Plate Reader - 2035-01_Inhibitor_DoseNoFile_DryPowder_Activity. [Related pubchem assays (depositor defined):AID2106]. Format: functional, organism-based.
For test [2], the system named is Vibrio harveyi. Put plainly: inhibitors of AI-2 quorum sensing in V. harveyi, dose response, LuxS, LuxPQ, dry powder, set 2 (AID 493072). The class given is functional, organism-based.
The subject of a further test is T-cell. Description: inhibitors of CD8+ T cell–vesicle binding, dose response, mouse 2C CD8+ T cells, flow cytometry (AID 485284). The class given is functional. On the technique in general: A flow cytometer gives signals particle by particle.
In test [3] the target is DNA damage-inducible transcript 3 protein (Mus musculus, UniProt P35639). Format: functional, Cricetulus griseus.
Chain of DNA damage-inducible transcript 3 protein (P35639 whole entry): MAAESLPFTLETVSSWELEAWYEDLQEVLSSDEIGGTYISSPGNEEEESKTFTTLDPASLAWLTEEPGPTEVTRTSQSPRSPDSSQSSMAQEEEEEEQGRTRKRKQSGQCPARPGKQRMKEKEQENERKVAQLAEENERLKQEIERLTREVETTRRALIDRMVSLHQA
The next test addresses T1, Leucine aminopeptidase (Plasmodium falciparum 3D7, UniProt Q8IL11).
T1 sequence (Q8IL11 whole entry): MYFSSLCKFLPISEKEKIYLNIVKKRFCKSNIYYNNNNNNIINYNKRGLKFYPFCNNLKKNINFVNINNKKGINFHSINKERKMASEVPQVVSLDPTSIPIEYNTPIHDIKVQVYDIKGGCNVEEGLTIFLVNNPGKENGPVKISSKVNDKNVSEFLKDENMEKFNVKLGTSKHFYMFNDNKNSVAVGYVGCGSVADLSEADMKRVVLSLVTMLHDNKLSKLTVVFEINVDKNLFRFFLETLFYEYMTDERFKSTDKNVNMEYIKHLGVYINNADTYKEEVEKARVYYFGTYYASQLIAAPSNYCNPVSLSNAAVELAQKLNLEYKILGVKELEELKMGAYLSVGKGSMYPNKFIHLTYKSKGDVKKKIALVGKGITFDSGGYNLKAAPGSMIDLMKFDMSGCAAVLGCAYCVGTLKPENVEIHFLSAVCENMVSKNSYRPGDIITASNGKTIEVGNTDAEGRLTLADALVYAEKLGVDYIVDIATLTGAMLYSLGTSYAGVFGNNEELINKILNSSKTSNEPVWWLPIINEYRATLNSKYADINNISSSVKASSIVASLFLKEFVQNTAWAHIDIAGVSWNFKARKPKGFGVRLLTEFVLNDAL
Put plainly: P. falciparum M17LAP inhibitors, primary screen, biochemical, fluorogenic H-Leu-NHMec substrate, 1536-well (AID 1619). The class given is functional.

Test [4] can be described thus: Intein inhibitors as potential Tuberculosis drugs, a cytotoxicity screen. [Related pubchem assays (depositor defined):AID2221, AID2223, AID434968, AID435010, AID449749, AID449750, AID489010]. Format: functional.
Test [5] has as its target T2, Replicative DNA helicase DnaB (Mycobacterium tuberculosis, UniProt P9WMR3).
T2 sequence (P9WMR3 whole entry): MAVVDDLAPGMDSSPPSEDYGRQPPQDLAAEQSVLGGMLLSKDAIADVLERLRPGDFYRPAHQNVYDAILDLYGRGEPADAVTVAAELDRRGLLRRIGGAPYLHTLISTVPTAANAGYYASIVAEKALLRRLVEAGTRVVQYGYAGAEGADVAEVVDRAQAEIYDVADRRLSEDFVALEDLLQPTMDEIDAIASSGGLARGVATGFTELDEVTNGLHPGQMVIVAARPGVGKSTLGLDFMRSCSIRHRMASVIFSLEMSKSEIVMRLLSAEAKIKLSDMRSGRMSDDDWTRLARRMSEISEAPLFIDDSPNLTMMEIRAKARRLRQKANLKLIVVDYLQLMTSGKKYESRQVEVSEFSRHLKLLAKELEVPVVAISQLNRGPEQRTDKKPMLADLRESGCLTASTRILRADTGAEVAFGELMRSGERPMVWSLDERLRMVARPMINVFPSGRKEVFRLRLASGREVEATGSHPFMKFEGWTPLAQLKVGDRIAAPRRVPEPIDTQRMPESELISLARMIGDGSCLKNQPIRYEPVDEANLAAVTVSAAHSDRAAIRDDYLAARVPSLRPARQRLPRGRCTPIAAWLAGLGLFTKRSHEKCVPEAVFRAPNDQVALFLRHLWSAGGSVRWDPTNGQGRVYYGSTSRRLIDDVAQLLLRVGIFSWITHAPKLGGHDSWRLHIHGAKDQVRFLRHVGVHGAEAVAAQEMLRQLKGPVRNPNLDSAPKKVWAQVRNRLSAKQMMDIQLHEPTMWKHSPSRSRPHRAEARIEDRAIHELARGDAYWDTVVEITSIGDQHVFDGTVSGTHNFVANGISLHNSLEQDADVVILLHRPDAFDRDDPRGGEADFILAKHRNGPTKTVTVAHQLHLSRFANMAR
Put plainly: DnaB intein splicing inhibitors, dose response, biochemical, cell-free fluorescence (AID 449749). The class given is functional.

The target of another test is T3, Protein RecA (Mycobacterium tuberculosis, UniProt P9WHJ3).
T3 sequence (P9WHJ3 whole entry): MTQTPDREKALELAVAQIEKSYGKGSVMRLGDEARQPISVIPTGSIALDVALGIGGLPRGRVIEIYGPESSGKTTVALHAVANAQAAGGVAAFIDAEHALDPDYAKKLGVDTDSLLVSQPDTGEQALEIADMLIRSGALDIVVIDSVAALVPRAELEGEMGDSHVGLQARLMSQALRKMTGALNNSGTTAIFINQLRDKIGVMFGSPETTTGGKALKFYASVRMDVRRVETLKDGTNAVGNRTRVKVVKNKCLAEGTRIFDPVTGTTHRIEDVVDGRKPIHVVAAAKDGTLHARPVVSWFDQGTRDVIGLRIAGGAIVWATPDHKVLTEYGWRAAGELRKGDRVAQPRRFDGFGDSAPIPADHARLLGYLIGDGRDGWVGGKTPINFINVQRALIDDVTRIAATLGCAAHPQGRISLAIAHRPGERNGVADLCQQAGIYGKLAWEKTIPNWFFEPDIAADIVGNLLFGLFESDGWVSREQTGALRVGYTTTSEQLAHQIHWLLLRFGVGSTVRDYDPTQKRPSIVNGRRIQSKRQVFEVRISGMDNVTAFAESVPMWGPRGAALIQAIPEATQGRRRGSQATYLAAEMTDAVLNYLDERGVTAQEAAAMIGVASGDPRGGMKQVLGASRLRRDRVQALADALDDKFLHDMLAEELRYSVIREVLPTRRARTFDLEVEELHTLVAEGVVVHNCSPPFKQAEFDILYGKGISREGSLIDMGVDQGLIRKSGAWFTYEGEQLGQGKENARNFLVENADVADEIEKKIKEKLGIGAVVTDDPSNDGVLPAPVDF
Description: Fluorescence Cell-Free Homogeneous Dose Retest to Identify Inhibitors of RecA-Intein Splicing Activity. [Related pubchem assays (depositor defined):AID2097, AID2223, AID489010, AID492950]. Format: functional.

For test [6], the system named is Streptococcus sp. 'group A'. Put plainly: growth inhibition of control SK(-) GAS strain, dose response, counter-screen for streptokinase expression inhibitor project, luminescence, kanamycin, BacTiterGlo, confirmation (AID 1900). The class given is functional, organism-based. For orientation: Counterscreens check selectivity or assay interference.
For a further test, the target named is T4, Streptokinase A (Streptococcus pyogenes serotype M1, UniProt P10520).
T4 sequence (P10520 whole entry): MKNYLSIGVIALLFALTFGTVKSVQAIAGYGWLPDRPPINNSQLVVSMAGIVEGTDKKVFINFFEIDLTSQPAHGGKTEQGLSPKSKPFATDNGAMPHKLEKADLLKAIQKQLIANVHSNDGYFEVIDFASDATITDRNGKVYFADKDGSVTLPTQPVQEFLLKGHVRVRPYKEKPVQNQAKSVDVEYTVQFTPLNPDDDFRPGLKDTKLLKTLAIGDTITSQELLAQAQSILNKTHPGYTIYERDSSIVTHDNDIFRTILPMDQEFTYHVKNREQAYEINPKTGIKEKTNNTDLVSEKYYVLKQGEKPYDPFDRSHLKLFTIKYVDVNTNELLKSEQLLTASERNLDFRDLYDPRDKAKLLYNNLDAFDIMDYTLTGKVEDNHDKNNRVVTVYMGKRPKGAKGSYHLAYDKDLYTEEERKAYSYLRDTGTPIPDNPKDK
Description: S. pyogenes streptokinase expression inhibitors, potency, dose response, plasminogen activation absorbance, OD405 (AID 1914).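 Also: secreted streptokinase activity via plasminogen activation per viability signal from cell pellet.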 Format: functional, Streptococcus pyogenes M1 GAS.

The next test has as its system Streptococcus. Description: Group A Streptococcus viability loss, dose response, counter-screen for streptokinase expression inhibitor project, luminescence, BacTiterGlo (AID 1915).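 Also: potency for reduction of bacterial viability or growth.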 The class given is functional, organism-based.
In test [7] the target is T5, Type-1 angiotensin II receptor (Homo sapiens, UniProt P30556).
T5 sequence (P30556 whole entry): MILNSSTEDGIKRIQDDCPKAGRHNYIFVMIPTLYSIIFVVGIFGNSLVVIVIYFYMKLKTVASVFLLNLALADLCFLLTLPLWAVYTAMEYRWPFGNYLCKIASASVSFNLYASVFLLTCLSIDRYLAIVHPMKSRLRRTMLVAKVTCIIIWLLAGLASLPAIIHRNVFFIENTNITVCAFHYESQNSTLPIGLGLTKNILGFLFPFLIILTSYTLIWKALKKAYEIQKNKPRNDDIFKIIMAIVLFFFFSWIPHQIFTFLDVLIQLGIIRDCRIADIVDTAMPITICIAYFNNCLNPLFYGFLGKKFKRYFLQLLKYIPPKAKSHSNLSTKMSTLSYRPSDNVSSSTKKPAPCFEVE
Put plainly: AT1 receptor agonists, dose response, selectivity assay for APJ receptor agonist project, cell-based, uHTS hits (AID 488865).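 Also: beta-arrestin recruitment to AT1 measured by enzyme fragment complementation luminescence.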 The class given is functional.

Another test relates to INS1. Put plainly: beta cell apoptosis inhibitors, cytokine rescue, dose response, luminescence, retest (AID 449756).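 Also: cell death triggered by IL-1 beta plus TNF-alpha plus IFN-gamma mixture; protective hits raise ATP signal compared with cytokine alone wells.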 Format: functional, cell-based. The note with it: Rattus norvegicus.
The nature of test [8]: A549 cell cytotoxicity, dose response, cytotoxicity control, plate reader, cherry-pick, antagonist series (AID 743412). Format: functional, cell-based.
Test [9] is described as follows: HepG2 cell cytotoxicity, dose response, cytotoxicity control, plate reader, cherry-pick, antagonist series (AID 743416). Format: functional, cell-based.
Test [10] can be described thus: LGR2 antagonists, dose response, cell-based, HEK293, CRE-luciferase reporter, cherry pick, set 2 (AID 743343).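 Also: transfected cells were stimulated with diluted bursicon conditioned medium after compound addition.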 Format: functional. (In general: Reporter assays use an easily measured gene product as a stand-in for the process of interest.)
Test [11] is described as follows: MC4R antagonists, dose response, counter-screen for LGR2 antagonist project, cell-based, plate reader, cherry pick (AID 743444).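 Also: transfected HEK 293 cells stimulated with alpha-MSH peptide; potency of inhibitors of the alpha-MSH evoked signal.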 Format: functional.
Test [12] in a line: HEK293 cell cytotoxicity, dose response, cytotoxicity control, plate reader, cherry-picked samples (AID 743446). Format: functional, cell-based.
Test [13] deals with T6, Cannabinoid receptor 2 (Homo sapiens, UniProt P34972). Description: SAR analysis of antagonists of the Cannabinoid Receptor 2 using an Image-Based Assay - Set 2. [Related pubchem assays (depositor defined):AID1961, AID1965]. Format: functional.
T6 sequence (P34972 whole entry): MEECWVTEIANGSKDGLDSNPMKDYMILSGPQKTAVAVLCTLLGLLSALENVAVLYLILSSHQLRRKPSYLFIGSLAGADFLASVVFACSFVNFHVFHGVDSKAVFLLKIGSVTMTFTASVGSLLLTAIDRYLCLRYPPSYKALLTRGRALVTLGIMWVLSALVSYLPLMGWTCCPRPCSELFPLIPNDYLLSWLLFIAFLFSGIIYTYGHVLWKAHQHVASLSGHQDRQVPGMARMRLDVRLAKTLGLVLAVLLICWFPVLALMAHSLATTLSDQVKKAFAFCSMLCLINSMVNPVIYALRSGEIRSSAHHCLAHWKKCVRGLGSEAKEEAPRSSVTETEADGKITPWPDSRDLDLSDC
Test [14] addresses G-protein coupled receptor 55 (Homo sapiens, UniProt Q9Y2T6). Description: SAR analysis of selective Agonists of GPR55 using an Image-Based Assay - Set 2. [Related pubchem assays (depositor defined):AID1961, AID1965]. Format: functional.
Test [15] has as its target T6, Cannabinoid receptor 2. Description: SAR analysis of agonists of the Cannabinoid Receptor 2 using an Image-Based Assay - Set 2. [Related pubchem assays (depositor defined):AID1961, AID1965]. Format: functional.
Test [16] addresses T7, G-protein coupled receptor 35 (Homo sapiens, UniProt Q9HC97). Description: SAR analysis of Agonists of the GPR35 Receptor using an Image-Based Assay - Set 3. [Related pubchem assays (depositor defined):AID1961, AID1965]. The class given is functional.
For test [17], the target named is T8, Cannabinoid receptor 1 (Homo sapiens, UniProt P21554). Description: SAR analysis of antagonists of the Cannabinoid Receptor 1 using an Image-Based Assay - Set 3. [Related pubchem assays (depositor defined):AID1961, AID1965]. The class given is functional.
T8 sequence (P21554 whole entry): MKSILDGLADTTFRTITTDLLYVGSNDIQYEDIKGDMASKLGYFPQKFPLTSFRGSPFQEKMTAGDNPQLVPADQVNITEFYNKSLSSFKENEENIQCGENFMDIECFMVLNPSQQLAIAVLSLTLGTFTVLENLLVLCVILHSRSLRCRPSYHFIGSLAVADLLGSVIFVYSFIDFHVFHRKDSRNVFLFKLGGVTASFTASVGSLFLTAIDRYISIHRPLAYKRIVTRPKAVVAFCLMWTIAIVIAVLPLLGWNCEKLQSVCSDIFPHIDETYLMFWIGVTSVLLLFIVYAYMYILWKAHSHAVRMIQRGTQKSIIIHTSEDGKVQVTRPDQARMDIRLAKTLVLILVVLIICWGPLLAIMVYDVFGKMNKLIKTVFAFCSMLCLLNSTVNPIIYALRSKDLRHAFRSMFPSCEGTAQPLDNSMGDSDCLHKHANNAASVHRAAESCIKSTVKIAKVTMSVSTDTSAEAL
Test [18] has as its target T8, Cannabinoid receptor 1. Description: SAR analysis of agonists of the Cannabinoid Receptor 1 using an Image-Based Assay - Set 3. [Related pubchem assays (depositor defined):AID1961, AID1965]. Format: functional.
Test [19] has as its target T7, G-protein coupled receptor 35. Description: SAR analysis of Antagonists of the GPR35 Receptor using an Image-Based Assay - Set 4. [Related pubchem assays (depositor defined):[…]]. The class given is functional.

Calls of active or inactive are those of the source. Bounds are passed on as bounds.

By AC50 is commonly meant the concentration at which the activity in the assay is half-maximal. By EC50 is commonly meant the concentration giving half of the maximal effect. Broadly, the IC50 is the concentration at which inhibition is half-maximal. A word on the CC50: it is the concentration giving 50% cytotoxicity.
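For CC50 in this document: cells exposed to compound for 72 hours before luminescence readout.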

T7 sequence (Q9HC97 whole entry): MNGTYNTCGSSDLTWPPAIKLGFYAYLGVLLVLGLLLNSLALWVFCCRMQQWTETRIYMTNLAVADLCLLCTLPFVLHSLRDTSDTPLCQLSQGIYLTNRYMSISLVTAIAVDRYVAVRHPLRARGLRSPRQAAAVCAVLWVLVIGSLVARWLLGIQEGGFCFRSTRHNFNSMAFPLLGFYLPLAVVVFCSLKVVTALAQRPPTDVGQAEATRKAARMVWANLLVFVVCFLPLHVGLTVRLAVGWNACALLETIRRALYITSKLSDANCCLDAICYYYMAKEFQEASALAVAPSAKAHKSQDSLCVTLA
Chain of G-protein coupled receptor 55 (Q9Y2T6 whole entry): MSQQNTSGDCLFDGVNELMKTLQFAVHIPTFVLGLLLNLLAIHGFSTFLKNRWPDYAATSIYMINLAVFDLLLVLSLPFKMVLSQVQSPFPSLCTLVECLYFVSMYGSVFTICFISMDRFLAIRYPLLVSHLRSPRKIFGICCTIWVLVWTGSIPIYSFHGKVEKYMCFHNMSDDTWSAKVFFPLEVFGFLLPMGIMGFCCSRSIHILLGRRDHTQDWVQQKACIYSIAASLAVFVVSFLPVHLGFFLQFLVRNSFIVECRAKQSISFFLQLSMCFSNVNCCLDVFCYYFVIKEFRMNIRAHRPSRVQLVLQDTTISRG

As to `O=C1C=C/C(=C/Br)O1`, the AC50 was 4.81 µM (active) in the test with Vibrio harveyi [1] and 3.1 µM (active) with Vibrio harveyi [2].

With `CN(Cc1ccccc1)C(=O)c1ccc(NC(=O)Cc2cccc(NC(=O)C3CCCN(C(=O)C4CCC4)C3)c2)cc1` (stereo not given), in the test with T-cell, the EC50 was 5.41 µM (active).

On to `O=C(Cc1csc(Nc2nc(S)nc3ccccc23)n1)NCCCN1CCN(c2ccccc2F)CC1`, for which the “Absolute IC50 (CHOP)” value in [3] is 10 µM.

On to `N#CC1=C(N)Oc2[nH]nc(-c3ccccc3)c2C1c1ccsc1` (stereo not given), for which the IC50 on Leucine aminopeptidase is 64.5 µM (active). Moreover, in test [4], the CC50 was > 40 µM (active). In test [5], the AC50 was 0.142 µM (active). For the same compound, the EC50 on Protein RecA is 0.731 µM (active).

In the case of `CCCCNc1c(-c2cccc(-c3ccc(OC)cc3)c2)nc2ccc(C)cn12`, the EC50 in test [6] is 4.54 µM (active); at Streptokinase A it was 7.94 µM (active); in the test on Streptococcus, 13.3 µM (active); in [7] it was > 100 µM (inactive). Moreover, the concentration at half-maximal activity (AC50) in the test with INS1 was 7.86 µM (active); in test [8], 28.7 µM (active); in test [9], 28.4 µM (active); in [10], 10.7 µM (active); in test [11] it was 11 µM (active); in test [12] it was 29.6 µM (active).

On to `COc1ccc(-c2csc(NC(=O)CSc3nnc4c(C)cc5cc6c(cc5n34)OCCO6)n2)cc1`, for which the IC50 (at Cannabinoid receptor 2 [13]; on Cannabinoid receptor 1 [17]; in [19]) was > 32 µM (inactive) in each case. In addition, the EC50 (in test [14]; at Cannabinoid receptor 2 [15]; in test [16]; at Cannabinoid receptor 1 [18]) was > 32 µM (inactive) in each case.

The record behind these values is ChEMBL document CHEMBL1201862, “PubChem BioAssay data set” (2004).
